The source of these data is US12371428B2 (Exelixis, Inc., priority 2019, dated 2025).

Experiment [1] addresses Human MET (residues 956-1390) (Homo sapiens (Human), UniProt P08581). In words: Human Met kinase assay, HTRF KinEase (Example D-2). The class given is biochemical. Particulars: read-out: c-Met IC50. The method, boiled down:
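IC50 values come from a 4-parameter logistic fit of the […] fluorescence ratio, set between DMSO (100%) and reference compound at 1 μM (0%). Reactions held MET 956-1390 at 0.1 ng/well, ATP at Km, biotinylated peptide, 5 mM MgCl2, 1 mM MnCl2, 1 mM DTT and 3% DMSO, and ran 40 min at room temperature before streptavidin-XL665/Eu-antibody detection.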
(In general: In TR-FRET formats the signal depends on donor and acceptor labels being close together.)

The target in experiment [2] is Human KDR (residues 790-1356) (Homo sapiens (Human), UniProt P35968). As to the kind of experiment: Human KDR kinase assay, HTRF KinEase (Example B-2). The class given is biochemical. The method, boiled down:
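Human KDR residues 790-1356 (0.1 ng/well) in buffer with 5 mM MgCl2, 1 mM MnCl2, 1 mM DTT, biotinylated peptide substrate, ATP at Km (4.0 μM), 3% DMSO, 10 compound concentrations; 40 min, room temperature. EDTA stop, streptavidin-XL665/Eu-TK antibody HTRF read 665/620 nm; 4-parameter IC50.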

The target in experiment [3] is Met (phospho-Met, HGF-stimulated PC-3 prostate cancer cells) (Homo sapiens (Human), UniProt P08581). In words: Met autophosphorylation ELISA in PC-3 cells (Example F). The class given is cell-based. Particulars: cellular activity; Met autophosphorylation ELISA in PC-3 cells; read-out: c-Met IC50. The method, boiled down: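 Sandwich ELISA for phospho-Met (panTyr) in PC-3 lysates. Cells starved 3 h serum-free, compound 1 h (8-pt curve, 0.3% DMSO), HGF 100 ng/mL 10 min. 100% = HGF + DMSO; 0% = HGF + reference inhibitor. IC50 by 4-parameter fit.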
(In general: In an ELISA, binding on a coated surface is turned into a signal by an enzyme label.)

Experiment [4] deals with Mer (phospho-Mer, MERTK-transfected 293A cells) (Homo sapiens (Human), UniProt Q12866). As to the kind of experiment: Mer autophosphorylation ELISA in transient transfected 293A cells (Example H). The class given is cell-based. Conditions: cellular activity; Mer autophosphorylation ELISA in transient transfected 293A cells. The gist of the method:
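Inhibition of cellular Mer autophosphorylation is determined in 293A cells transiently expressing human MERTK after 1 h compound exposure (8 concentrations, serum-free, 0.3% DMSO). Phospho-Mer in clarified lysates is measured by ELISA, with DMSO and reference-inhibitor wells defining the 100% and 0% activity limits.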

The target in experiment [5] is Human MER (residues 528-999) (Homo sapiens (Human), UniProt Q12866). As to the kind of experiment: Human Mer kinase assay, HTRF KinEase (Example C-2). The class given is biochemical. The method, boiled down: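 IC50 values from 10 concentrations via 4-parameter logistic fit of […], with DMSO as 100% and 1 μM reference compound as 0% activity. Reaction: MER kinase domain 528-999, 1 ng/well, 40 μM ATP (Km), biotin peptide, 5 mM MgCl2, 1 mM DTT, 3% DMSO, room temperature 60 min; HTRF streptavidin-XL665/Eu-antibody detection.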

The mark [6] stands for this setting: protocol of Example D-2 (other compounds).
Where [7] appears, read: protocol of Example B-2 (other compounds).
Where [8] appears, read: protocol of Example C-2 (other compounds).

Read-outs that look alike come from different tables or passages of the source.

Mer (phospho-Mer, MERTK-transfected 293A cells), sequence (Q12866 21-999): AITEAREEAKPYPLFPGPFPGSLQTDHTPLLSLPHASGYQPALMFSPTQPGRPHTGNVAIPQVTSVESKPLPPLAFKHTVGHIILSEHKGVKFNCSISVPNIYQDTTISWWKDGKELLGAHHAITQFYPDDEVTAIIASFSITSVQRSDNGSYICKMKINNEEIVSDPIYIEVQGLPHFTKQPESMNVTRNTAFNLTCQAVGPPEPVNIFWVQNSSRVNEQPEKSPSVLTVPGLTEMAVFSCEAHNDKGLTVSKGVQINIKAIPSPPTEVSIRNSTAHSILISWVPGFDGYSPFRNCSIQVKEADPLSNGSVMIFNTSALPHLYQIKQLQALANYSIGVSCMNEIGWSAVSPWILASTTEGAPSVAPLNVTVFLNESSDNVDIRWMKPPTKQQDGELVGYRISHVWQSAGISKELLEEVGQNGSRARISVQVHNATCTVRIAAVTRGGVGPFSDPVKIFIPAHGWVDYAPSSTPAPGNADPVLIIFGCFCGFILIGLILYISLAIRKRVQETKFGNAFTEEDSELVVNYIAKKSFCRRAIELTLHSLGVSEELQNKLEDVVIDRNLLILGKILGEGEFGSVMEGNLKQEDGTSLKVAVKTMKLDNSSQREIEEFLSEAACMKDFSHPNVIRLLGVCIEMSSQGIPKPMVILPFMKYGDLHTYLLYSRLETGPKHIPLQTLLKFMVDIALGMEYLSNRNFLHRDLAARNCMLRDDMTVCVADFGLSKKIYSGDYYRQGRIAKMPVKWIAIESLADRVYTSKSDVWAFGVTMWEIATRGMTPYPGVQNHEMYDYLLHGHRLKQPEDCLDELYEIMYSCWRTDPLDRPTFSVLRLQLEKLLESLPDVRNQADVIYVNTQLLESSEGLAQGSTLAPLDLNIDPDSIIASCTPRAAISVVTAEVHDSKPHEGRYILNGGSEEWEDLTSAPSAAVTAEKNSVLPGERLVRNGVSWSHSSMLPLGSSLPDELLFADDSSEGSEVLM
Human MER (residues 528-999), sequence (Q12866 528-999): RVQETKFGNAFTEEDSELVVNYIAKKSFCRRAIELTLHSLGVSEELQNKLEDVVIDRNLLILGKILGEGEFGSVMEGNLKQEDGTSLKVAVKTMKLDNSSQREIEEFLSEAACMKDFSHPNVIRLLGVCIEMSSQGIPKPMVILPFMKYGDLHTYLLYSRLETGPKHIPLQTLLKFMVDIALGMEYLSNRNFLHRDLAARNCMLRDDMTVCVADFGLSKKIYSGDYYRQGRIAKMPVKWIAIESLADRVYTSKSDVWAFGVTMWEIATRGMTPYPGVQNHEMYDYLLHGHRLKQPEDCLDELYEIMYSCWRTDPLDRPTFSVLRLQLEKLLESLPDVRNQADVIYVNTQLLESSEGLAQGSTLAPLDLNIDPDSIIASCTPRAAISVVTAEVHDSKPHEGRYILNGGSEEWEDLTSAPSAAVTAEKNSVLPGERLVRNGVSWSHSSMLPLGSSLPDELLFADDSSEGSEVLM
Human MET (residues 956-1390), sequence (P08581 956-1390): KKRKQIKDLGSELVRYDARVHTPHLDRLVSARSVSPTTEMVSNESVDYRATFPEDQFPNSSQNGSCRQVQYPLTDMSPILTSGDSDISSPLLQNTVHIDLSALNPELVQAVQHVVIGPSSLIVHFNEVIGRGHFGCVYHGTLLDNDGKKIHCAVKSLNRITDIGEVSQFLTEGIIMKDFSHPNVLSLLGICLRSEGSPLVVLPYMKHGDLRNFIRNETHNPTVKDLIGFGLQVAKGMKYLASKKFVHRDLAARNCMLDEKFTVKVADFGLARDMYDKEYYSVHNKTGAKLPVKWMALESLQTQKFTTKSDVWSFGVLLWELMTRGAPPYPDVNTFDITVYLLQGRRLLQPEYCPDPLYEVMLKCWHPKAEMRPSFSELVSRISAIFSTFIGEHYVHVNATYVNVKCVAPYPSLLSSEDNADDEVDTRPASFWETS
Human KDR (residues 790-1356), sequence (P35968 790-1356): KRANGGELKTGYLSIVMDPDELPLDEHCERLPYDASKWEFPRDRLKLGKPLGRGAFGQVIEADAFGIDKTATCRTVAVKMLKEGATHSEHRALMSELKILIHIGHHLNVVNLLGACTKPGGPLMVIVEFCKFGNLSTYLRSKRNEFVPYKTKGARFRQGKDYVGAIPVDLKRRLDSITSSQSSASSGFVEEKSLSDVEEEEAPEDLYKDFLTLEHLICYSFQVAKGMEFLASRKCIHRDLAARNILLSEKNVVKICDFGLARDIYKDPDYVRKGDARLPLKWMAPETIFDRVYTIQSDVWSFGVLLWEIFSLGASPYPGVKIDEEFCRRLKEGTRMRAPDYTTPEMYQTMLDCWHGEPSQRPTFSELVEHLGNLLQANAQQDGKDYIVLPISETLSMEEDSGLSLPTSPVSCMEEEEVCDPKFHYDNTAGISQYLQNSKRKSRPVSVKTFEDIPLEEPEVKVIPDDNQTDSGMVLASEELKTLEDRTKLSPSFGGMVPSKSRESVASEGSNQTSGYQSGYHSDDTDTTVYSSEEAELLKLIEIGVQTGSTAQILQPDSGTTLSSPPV
Met (phospho-Met, HGF-stimulated PC-3 prostate cancer cells), sequence (P08581 25-1390): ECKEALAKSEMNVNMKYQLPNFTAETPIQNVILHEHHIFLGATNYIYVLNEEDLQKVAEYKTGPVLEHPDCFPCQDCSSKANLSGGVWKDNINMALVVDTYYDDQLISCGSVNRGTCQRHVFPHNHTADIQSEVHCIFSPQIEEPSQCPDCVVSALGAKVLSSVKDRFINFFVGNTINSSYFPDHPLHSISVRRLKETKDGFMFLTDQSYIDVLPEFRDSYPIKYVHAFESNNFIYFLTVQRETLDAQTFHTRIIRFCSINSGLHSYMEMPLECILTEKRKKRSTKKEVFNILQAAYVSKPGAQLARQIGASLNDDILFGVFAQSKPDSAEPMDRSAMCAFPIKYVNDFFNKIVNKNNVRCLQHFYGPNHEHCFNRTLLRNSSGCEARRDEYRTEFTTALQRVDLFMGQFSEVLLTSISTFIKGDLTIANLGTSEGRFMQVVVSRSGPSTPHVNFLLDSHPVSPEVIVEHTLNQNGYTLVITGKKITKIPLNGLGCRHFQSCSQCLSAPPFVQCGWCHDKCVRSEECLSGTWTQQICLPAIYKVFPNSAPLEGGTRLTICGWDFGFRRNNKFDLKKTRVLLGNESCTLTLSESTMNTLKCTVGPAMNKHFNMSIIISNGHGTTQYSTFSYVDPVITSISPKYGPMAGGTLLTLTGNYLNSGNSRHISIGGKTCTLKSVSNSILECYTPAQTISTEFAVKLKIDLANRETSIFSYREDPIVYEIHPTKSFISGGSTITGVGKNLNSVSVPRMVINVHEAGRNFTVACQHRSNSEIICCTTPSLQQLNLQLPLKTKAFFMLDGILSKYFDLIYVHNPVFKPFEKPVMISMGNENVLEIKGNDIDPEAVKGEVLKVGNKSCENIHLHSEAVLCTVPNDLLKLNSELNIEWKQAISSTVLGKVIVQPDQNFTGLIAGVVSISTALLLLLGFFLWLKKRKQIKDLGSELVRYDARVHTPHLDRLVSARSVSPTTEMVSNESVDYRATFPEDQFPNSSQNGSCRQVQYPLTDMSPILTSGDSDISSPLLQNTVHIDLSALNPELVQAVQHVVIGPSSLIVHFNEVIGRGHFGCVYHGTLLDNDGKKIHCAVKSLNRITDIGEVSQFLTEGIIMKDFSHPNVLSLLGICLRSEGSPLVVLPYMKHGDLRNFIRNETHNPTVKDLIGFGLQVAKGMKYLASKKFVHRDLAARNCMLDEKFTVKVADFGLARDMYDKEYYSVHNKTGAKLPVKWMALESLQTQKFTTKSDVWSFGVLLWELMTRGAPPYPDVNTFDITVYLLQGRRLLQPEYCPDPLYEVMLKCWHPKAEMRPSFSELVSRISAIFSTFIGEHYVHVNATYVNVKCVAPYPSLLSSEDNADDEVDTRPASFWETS

As for `COc1cc2nccc(Oc3ccc(NC(=O)c4cnc(C(F)(F)F)c(-c5ccc(F)cc5)c4O)cc3F)c2nc1OC` [Compound 79, N-[4-[(6,7-Dimethoxy-1,5-naphthyridin-4-yl)oxy]-3-fluorophenyl]-5-(4-fluorophenyl)-4-hydroxy-6-(trifluoromethyl)pyridine-3-carboxamide], the IC50 is 100 to 300 nM in experiment [1] (setting [6]); over 300 nM in experiment [2] (setting [7]); 100 to 300 nM in experiment [3]; under 100 nM in experiment [4]; under 100 nM in experiment [5] (setting [8]).

In the case of `COc1cc2nccc(Oc3ccc(NC(=O)c4cn(-c5ccccn5)cc(-c5ccc(F)cc5)c4=O)cc3F)c2nc1OC` [Compound 124, N-[4-[(6,7-Dimethoxy-1,5-naphthyridin-4-yl)oxy]-3-fluorophenyl]-5-(4-fluorophenyl)-4-oxo-1-pyridin-2-ylpyridine-3-carboxamide], the IC50 in experiment [1] (setting [6]) was under 100 nM; in experiment [2] (setting [7]), over 300 nM; in experiment [3], under 100 nM; in experiment [4], under 100 nM; in experiment [5] (setting [8]), under 100 nM.

With `COc1cc2nccc(Oc3ccc(NC(=O)c4cn(-c5cnn(C)c5)c(C)c(-c5ccc(F)cc5)c4=O)cc3)c2nc1OC` [Compound 141, N-[4-[(6,7-Dimethoxy-1,5-naphthyridin-4-yl)oxy]phenyl]-5-(4-fluorophenyl)-6-methyl-1-(1-methylpyrazol-4-yl)-4-oxopyridine-3-carboxamide], the IC50 in experiment [1] (setting [6]) is under 100 nM; in experiment [2] (setting [7]), over 300 nM; in experiment [3], under 100 nM; in experiment [4], under 100 nM; in experiment [5] (setting [8]) it was under 100 nM.

In the case of `Cc1ncc(C(=O)Nc2ccc(Oc3ccnc4cc(Br)cnc34)cc2)c(O)c1-c1ccc(F)cc1` [Compound 149, N-[4-[(7-Bromo-1,5-naphthyridin-4-yl)oxy]phenyl]-5-(4-fluorophenyl)-4-hydroxy-6-methylpyridine-3-carboxamide], the concentration for half-maximal inhibition (IC50) was under 100 nM in experiment [1] (setting [6]); 100 to 300 nM in experiment [2] (setting [7]); under 100 nM in experiment [3]; under 100 nM in experiment [4]; under 100 nM in experiment [5] (setting [8]).

Consider `COc1cnc2c(Oc3ccc(NC(=O)c4cn(C(C)(C)C)c(C)c(-c5ccc(F)cc5)c4=O)cc3)ccnc2c1` [Compound 165, 1-tert-Butyl-5-(4-fluorophenyl)-N-[4-[(7-methoxy-1,5-naphthyridin-4-yl)oxy]phenyl]-6-methyl-4-oxopyridine-3-carboxamide], for which the half-maximal inhibitory concentration (IC50) is under 100 nM in experiment [1] (setting [6]), over 300 nM in experiment [2] (setting [7]), under 100 nM in experiment [4] and under 100 nM in experiment [5] (setting [8]).

For `COc1cc2nccc(Oc3ccc(NC(=O)c4c(C)n(C)cc(-c5ccc(F)cc5)c4=O)cc3)c2nc1OC` [Compound 238, N-[4-[(6,7-Dimethoxy-1,5-naphthyridin-4-yl)oxy]phenyl]-5-(4-fluorophenyl)-1,2-dimethyl-4-oxopyridine-3-carboxamide], the 50% inhibitory concentration (IC50) in experiment [1] (setting [6]) is under 100 nM; in experiment [2] (setting [7]) it was over 300 nM; in experiment [3] it was under 100 nM; in experiment [4], under 100 nM; in experiment [5] (setting [8]), under 100 nM.

`COc1cnc2c(Oc3ccc(NC(=O)c4c(C)ncn(-c5ccc(F)cc5)c4=O)cc3)ccnc2c1` [Compound 255, 1-(4-Fluorophenyl)-N-[4-[(7-methoxy-1,5-naphthyridin-4-yl)oxy]phenyl]-4-methyl-6-oxopyrimidine-5-carboxamide]: the IC50 in experiment [1] (setting [6]) was 100 to 300 nM; in experiment [2] (setting [7]) it was over 300 nM; in experiment [3], 100 to 300 nM; in experiment [4] it was under 100 nM; in experiment [5] (setting [8]), under 100 nM.

With `CCOc1nc(C)c(-c2ccc(F)cc2)c(O)c1C(=O)Nc1ccc(Oc2ccnc3cc(OC)c(OC)nc23)c(F)c1` [Compound 365, N-[4-[(6,7-dimethoxy-1,5-naphthyridin-4-yl)oxy]-3-fluorophenyl]-2-ethoxy-5-(4-fluorophenyl)-4-hydroxy-6-methylpyridine-3-carboxamide], the IC50 was over 300 nM in experiment [1] (setting [6]), over 300 nM in experiment [2] (setting [7]) and 100 to 300 nM in experiment [5] (setting [8]).

`COc1cc2nccc(Oc3ccc(NC(=O)c4cc(Br)c(C)n(-c5ccc(F)cc5)c4=O)cc3F)c2nc1OC` [Compound 366, 5-bromo-N-[4-[(6,7-dimethoxy-1,5-naphthyridin-4-yl)oxy]-3-fluorophenyl]-1-(4-fluorophenyl)-6-methyl-2-oxopyridine-3-carboxamide]: the IC50 in experiment [1] (setting [6]) was 100 to 300 nM; in experiment [2] (setting [7]), 100 to 300 nM; in experiment [3], under 100 nM; in experiment [4], under 100 nM; in experiment [5] (setting [8]), under 100 nM.

For `COc1cc2nccc(Oc3ccc(NC(=O)c4c(C)nc(OC)c(-c5ccc(F)cc5)c4OC)cc3F)c2nc1OC` [Compound 444, N-[4-[(6,7-dimethoxy-1,5-naphthyridin-4-yl)oxy]-3-fluorophenyl]-5-(4-fluorophenyl)-4,6-dimethoxy-2-methylpyridine-3-carboxamide], the IC50 in experiment [1] (setting [6]), in experiment [2] (setting [7]) and in experiment [5] (setting [8]) was over 300 nM each time.

As for `C=C(C)c1cc2nccc(Oc3ccc(NC(=O)c4cnc(C)c(-c5ccc(F)cc5C)c4O)cc3F)c2nc1OC` [Compound 449, N-[3-fluoro-4-[(6-methoxy-7-prop-1-en-2-yl-1,5-naphthyridin-4-yl)oxy]phenyl]-5-(4-fluoro-2-methylphenyl)-4-hydroxy-6-methylpyridine-3-carboxamide], the half-maximal inhibitory concentration (IC50) was over 300 nM in experiment [1] (protocol of Example D-2), over 300 nM in experiment [2] (protocol of Example B-2) and under 100 nM in experiment [5] (protocol of Example C-2).

`C=C(C)c1cc2nccc(Oc3ccc(NC(=O)c4cnc(C)c(-c5ccc(F)cc5)c4O)cc3F)c2nc1OC` [Compound 452, N-[3-fluoro-4-[(6-methoxy-7-prop-1-en-2-yl-1,5-naphthyridin-4-yl)oxy]phenyl]-5-(4-fluorophenyl)-4-hydroxy-6-methylpyridine-3-carboxamide]: the half-inhibitory concentration (IC50) in experiment [1] (protocol of Example D-2) was over 300 nM; in experiment [2] (protocol of Example B-2), 100 to 300 nM; in experiment [5] (protocol of Example C-2) it was under 100 nM.

As to `C=C(C)c1cc2nccc(Oc3ccc(NC(=O)c4c(C)nc(C)c(-c5ccc(F)cc5)c4O)cc3F)c2nc1OC` [Compound 453, N-[3-fluoro-4-[(6-methoxy-7-prop-1-en-2-yl-1,5-naphthyridin-4-yl)oxy]phenyl]-5-(4-fluorophenyl)-4-hydroxy-2,6-dimethylpyridine-3-carboxamide], the IC50 is over 300 nM in experiment [1] (protocol of Example D-2), 100 to 300 nM in experiment [2] (protocol of Example B-2) and under 100 nM in experiment [5] (protocol of Example C-2).

For `COc1cc2nccc(Oc3ccc(NC(=O)c4cn(C(C)C)c(C)c(-c5ccc(F)cc5)c4=O)cc3F)c2nc1N(C)C` [Compound 583, N-[4-[[6-(Dimethylamino)-7-methoxy-1,5-naphthyridin-4-yl]oxy]-3-fluorophenyl]-5-(4-fluorophenyl)-6-methyl-4-oxo-1-propan-2-ylpyridine-3-carboxamide], the IC50 was under 100 nM in experiment [1] (protocol of Example D-2), over 300 nM in experiment [2] (protocol of Example B-2) and under 100 nM in experiment [5] (protocol of Example C-2).

Consider `COc1nc2c(Oc3ccc(NC(=O)c4cnc(C)c(-c5ccc(F)cc5)c4O)cc3F)ccnc2cc1C(C)C` [Compound 590, N-[3-Fluoro-4-[(6-methoxy-7-propan-2-yl-1,5-naphthyridin-4-yl)oxy]phenyl]-5-(4-fluorophenyl)-4-hydroxy-6-methylpyridine-3-carboxamide], for which the IC50 in experiment [1] (protocol of Example D-2) was over 300 nM; in experiment [2] (protocol of Example B-2), over 300 nM; in experiment [5] (protocol of Example C-2), under 100 nM.

As to `COc1nc2c(Oc3ccc(NC(=O)c4cnc(C)c(-c5ccc(F)cc5C)c4O)cc3F)ccnc2cc1C(C)C` [Compound 591, N-[3-Fluoro-4-[(6-methoxy-7-propan-2-yl-1,5-naphthyridin-4-yl)oxy]phenyl]-5-(4-fluoro-2-methylphenyl)-4-hydroxy-6-methylpyridine-3-carboxamide], the results for the IC50 in experiment [1] (protocol of Example D-2), in experiment [2] (protocol of Example B-2) and in experiment [5] (protocol of Example C-2) were over 300 nM, over 300 nM and 100 to 300 nM, respectively.

Regarding `COc1nc2c(Oc3ccc(NC(=O)c4c(C)nc(C)c(-c5ccc(F)cc5)c4O)cc3F)ccnc2cc1C(C)C` [Compound 592, N-[3-Fluoro-4-[(6-methoxy-7-propan-2-yl-1,5-naphthyridin-4-yl)oxy]phenyl]-5-(4-fluorophenyl)-4-hydroxy-2,6-dimethylpyridine-3-carboxamide], the concentration for half-maximal inhibition (IC50) is over 300 nM in experiment [1] (protocol of Example D-2), over 300 nM in experiment [2] (protocol of Example B-2) and under 100 nM in experiment [5] (protocol of Example C-2).

The IC50 is the concentration needed to halve the response being measured.
